# Literature values in patent US4390710A, “Catalyst system for manufacturing p-chlorophenyl-N-methyl carbamate” (PPG Industries, Inc., priority 1981, dated 1983).
# Conditions: organic herbicides such as isopropyl-N-(3-chlorophenyl) carbamate and isopropyl-N-phenyl carbamate
compound,measurement,value
CNC(=O)Oc1ccc(Cl)cc1 [p-chlorophenyl-N-methyl carbamate],extending the soil life of organic herbicides,capable of extending the soil life of many organic herbicides
